According to patent publication US11566007B2, “Ras inhibitors” (Revolution Medicines, Inc., priority 2019, dated 2023):

Key:
[1] = test system: NCI-H358 cells (K-Ras G12C); assay: Potency assay: pERK in NCI-H358 cells; assay type: cell-based, human; conditions: Homo sapiens, NCI-H358; H358 KRAS G12C; read-out: pERK EC50
Method in brief: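 pERK decrease read by AlphaLISA SureFire p-ERK1/2 or In-Cell Western after 4 h compound exposure at 37 °C, 5% CO2.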

K-Ras G12C = K-Ras G12C (Homo sapiens (Human), UniProt P01116+P62937, G12C); assay: Ras-Raf (BRAF RBD) disruption / FRET / MOA assay, KRAS G12C; assay type: biochemical; conditions: KRAS G12C; Ras-Raf disruption/FRET/MOA assay; read-out: IC50* KRAS G12C FRET data
Chain of K-Ras G12C (P01116-2 other isoform, or with tags, fused parts or gaps G12C): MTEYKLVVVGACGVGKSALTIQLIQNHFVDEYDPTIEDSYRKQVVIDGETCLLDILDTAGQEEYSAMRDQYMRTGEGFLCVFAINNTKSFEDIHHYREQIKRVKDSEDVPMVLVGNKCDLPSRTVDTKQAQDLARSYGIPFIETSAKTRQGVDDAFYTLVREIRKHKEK
Chain of K-Ras G12C (P62937 whole entry): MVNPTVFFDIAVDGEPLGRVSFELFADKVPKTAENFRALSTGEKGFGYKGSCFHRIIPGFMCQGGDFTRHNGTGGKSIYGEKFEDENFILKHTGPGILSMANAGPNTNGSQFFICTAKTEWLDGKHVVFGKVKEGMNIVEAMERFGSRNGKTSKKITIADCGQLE
Method in brief: (§1)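 TR-FRET read-out: a drop in ratio relative to DMSO wells marks disruption of the Ras:RAF complex, reported as IC50. Compounds (3-fold series, 10 points, top 30 μM final) incubated 3 h at 25° C before Eu-anti-His 10 nM and APC-anti-GST 50 nM, 1.5 h more.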

KRAS G12V = KRAS G12V (Homo sapiens (Human), UniProt P01116+P62937, G12V); assay: Ras-Raf (BRAF RBD) disruption / FRET / MOA assay, KRAS G12V; assay type: biochemical; conditions: read-out: IC50* KRAS G12V FRET data
Chain of KRAS G12V (P01116-2 other isoform, or with tags, fused parts or gaps G12V): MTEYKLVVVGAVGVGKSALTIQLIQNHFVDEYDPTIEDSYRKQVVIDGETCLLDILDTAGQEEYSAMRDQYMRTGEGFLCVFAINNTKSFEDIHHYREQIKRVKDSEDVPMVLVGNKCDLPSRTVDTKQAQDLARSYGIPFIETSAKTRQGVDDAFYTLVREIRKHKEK
Chain of KRAS G12V (P62937 whole entry): as the sequence (P62937 whole entry) above
Method in brief: as §1

NRAS G12C = NRAS G12C (Homo sapiens (Human), UniProt P01111+P62937, G12C); assay: Ras-Raf (BRAF RBD) disruption / FRET / MOA assay, NRAS G12C; assay type: biochemical; conditions: read-out: IC50* NRAS G12C FRET data
Chain of NRAS G12C (P01111 whole entry G12C): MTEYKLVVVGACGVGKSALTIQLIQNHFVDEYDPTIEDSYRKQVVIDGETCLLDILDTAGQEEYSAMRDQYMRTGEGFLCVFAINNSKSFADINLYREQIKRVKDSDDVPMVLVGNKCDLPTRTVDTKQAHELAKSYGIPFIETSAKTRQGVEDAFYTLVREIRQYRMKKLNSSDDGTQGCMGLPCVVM
Chain of NRAS G12C (P62937 whole entry): as the sequence (P62937 whole entry) above
Method in brief: as §1

NRAS Q61R = NRAS Q61R (Homo sapiens (Human), UniProt P01111+P62937, Q61R); assay: Ras-Raf (BRAF RBD) disruption / FRET / MOA assay, NRAS Q61R; assay type: biochemical; conditions: NRAS Q61R; Ras-Raf disruption/FRET/MOA assay; read-out: IC50* NRAS Q61R FRET data
Chain of NRAS Q61R (P01111 whole entry Q61R): as the sequence (P01111 whole entry G12C) above, with C12G, Q61R counted along it
Chain of NRAS Q61R (P62937 whole entry): as the sequence (P62937 whole entry) above
Method in brief: (§2)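 Compounds were tested as a 10-point 3-fold dilution series from 30 μM final for their ability to drive ternary complex formation between nucleotide-loaded Ras and cyclophilin A, displacing the BRAF RBD. After 3 h at 25° C., anti-His Eu-W1024 (10 nM) and anti-GST allophycocyanin (50 nM) were added for 1.5 h. A TR-FRET ratio decrease versus DMSO gave IC50.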

NRAS WT = NRAS WT (Homo sapiens (Human), UniProt P01111+P62937); assay: Ras-Raf (BRAF RBD) disruption / FRET / MOA assay, NRAS WT; assay type: biochemical; conditions: read-out: IC50* NRAS WT FRET data
Chain of NRAS WT (P01111 whole entry): as the sequence (P01111 whole entry G12C) above, with C12G counted along it
Chain of NRAS WT (P62937 whole entry): as the sequence (P62937 whole entry) above
Method in brief: as §2

Row | Structure (SMILES) | EC50 [1] [µM] | IC50 (K-Ras G12C) [µM] | IC50 (KRAS G12V) [µM] | IC50 (NRAS G12C) [µM] | IC50 (NRAS Q61R) [µM] | IC50 (NRAS WT) [µM]
1 | C=CC(=O)Nc1ccc(C(=O)N(C)[C@H](C(=O)N[C@H]2Cc3cc(O)cc(c3)-c3ccc4c(c3)c(c(-c3cccnc3[C@H](C)OC)n4CC)CC(C)(C)COC(=O)[C@@H]3CCCN(N3)C2=O)C(C)C)nc1 (atropisomer, axis not shown) [Example A252] | < 5 | 0.01 to 0.1 | 0.1 to 1 | 0.01 to 0.1 | 1 to 10 | 0.1 to 1
2 | C=CC(=O)N1CCN(C(=O)N(C)[C@H](C(=O)N[C@H]2Cc3cc(O)cc(c3)-c3ccc4c(c3)c(c(-c3cccnc3[C@H](C)OC)n4CC)CC(C)(C)COC(=O)[C@@H]3CCCN(N3)C2=O)C(C)C)CC1 (atropisomer, axis not shown) [Example A262] | < 5 | 0.01 to 0.1 | 0.01 to 0.1 | 0.01 to 0.1 | 0.1 to 1 | 0.01 to 0.1
3 | C=CS(=O)(=O)N1CC2(CCN([C@H](C(=O)N[C@H]3Cc4cc(O)cc(c4)-c4ccc5c(c4)c(c(-c4cccnc4[C@H](C)OC)n5CC)CC(C)(C)COC(=O)[C@@H]4CCCN(N4)C3=O)C(C)C)C2=O)C1 (atropisomer, axis not shown) [Example A297] | < 5 | 0.01 to 0.1 | 0.1 to 1 | < 0.01 | 0.1 to 1 | 0.01 to 0.1
4 | C=CC(=O)N1CC[C@H](C(=O)N(C)[C@H](C(=O)N[C@H]2Cc3cccc(c3)-c3ccc4c(c3)c(c(-c3cccnc3[C@H](C)OC)n4CC(F)(F)F)CC(C)(C)COC(=O)[C@@H]3CCCN(N3)C2=O)C(C)C)C1 (atropisomer, axis not shown) [Example A332] | < 5 | 0.01 to 0.1 | 1 to 10 | 0.01 to 0.1 | 1 to 10 | 1 to 10
5 | C=CC(=O)N1CC[C@H](C(=O)N(C)[C@H](C(=O)N[C@H]2Cc3cc(F)cc(c3)-c3ccc4c(c3)c(c(-c3cccnc3[C@H](C)OC)n4CC)CC(C)(C)COC(=O)[C@@H]3CCCN(N3)C2=O)C(C)C)C1 (atropisomer, axis not shown) [Example A342] | < 5 | 0.01 to 0.1 | 1 to 10 | 0.1 to 1 | 1 to 10 | 1 to 10
6 | CCn1c(-c2cccnc2[C@H](C)OC)c2c3cc(ccc31)-c1cccc(c1)C[C@H](NC(=O)[C@@H](COC1CN(C(=O)C#CC(C)(C)N3CCC3)C1)C(C)C)C(=O)N1CCC[C@H](N1)C(=O)OCC(C)(C)C2 (atropisomer, axis not shown) [Example A346] | < 5 | < 0.01 | 1 to 10 | 0.01 to 0.1 | > 10 | > 10
7 | CO[C@@H](C)c1ncccc1-c1c2c3cc(ccc3n1CC(F)(F)F)-c1cc(F)cc(c1)C[C@H](NC(=O)[C@@H](COC1CN(C(=O)C#CC(C)(C)N(C)C)C1)C(C)C)C(=O)N1CCC[C@H](N1)C(=O)OCC(C)(C)C2 (atropisomer, axis not shown) [Example A348] | < 5 | < 0.01 | 1 to 10 | < 0.01 | > 10 | 1 to 10
8 | CCn1c(-c2cccnc2[C@H](C)OC)c2c3cc(ccc31)-c1cccc(c1)C[C@H](NC(=O)[C@H](C(C)C)N1CO[C@]3(CCN(C(=O)C#CC(C)(C)N4CCC4)C3)C1=O)C(=O)N1CCC[C@H](N1)C(=O)OCC(C)(C)C2 (atropisomer, axis not shown) [Example A351] | < 5 | < 0.01 | 1 to 10 | < 0.01 | 1 to 10 | 0.1 to 1
9 | C=CC(=O)N1CC[C@@]2(CCN(C(=O)N(C)[C@H](C(=O)N[C@H]3Cc4nc(cs4)-c4ccc5c(c4)c(c(-c4cccnc4[C@H](C)OC)n5CC)CC(C)(C)COC(=O)[C@@H]4CCCN(N4)C3=O)C(C)C)C2)C1 (atropisomer, axis not shown) [Example A367] | < 5 | 0.01 to 0.1 | 0.1 to 1 | 0.01 to 0.1 | 0.01 to 0.1 | 0.01 to 0.1
10 | C=CC(=O)N(C)CC1CN(C(=O)N(C)[C@H](C(=O)N[C@H]2Cc3nc(cs3)-c3ccc4c(c3)c(c(-c3cccnc3[C@H](C)OC)n4CC)CC(C)(C)COC(=O)[C@@H]3CCCN(N3)C2=O)C(C)C)C1 (atropisomer, axis not shown) [Example A368] | < 5 | 0.01 to 0.1 | 0.01 to 0.1 | 0.01 to 0.1 | 0.01 to 0.1 | 0.01 to 0.1
11 | C=CC(=O)N1CC[C@]2(C1)OCN([C@H](C(=O)N[C@H]1Cc3cccc(c3)-c3ccc4c(c3)c(c(-c3cccnc3[C@H](C)OC)n4CC)CC(C)(C)COC(=O)[C@@H]3CCCN(N3)C1=O)C(C)C)C2=O (atropisomer, axis not shown) [Example A371] | < 5 | 0.01 to 0.1 | > 10 | 0.01 to 0.1 | > 10 | 1 to 10
12 | CO[C@@H](C)c1ncccc1-c1c2c3cc(ccc3n1CC(F)(F)F)N1CCO[C@@H](C[C@H](NC(=O)[C@@H](COC3CN(C(=O)C#CC(C)(C)N(C)C)C3)C(C)C)C(=O)N3CCC[C@H](N3)C(=O)OCC(C)(C)C2)C1 (atropisomer, axis not shown) [Example A375, (2R)-2-(((1-(4-(dimethylamino)-4-methylpent-2-ynoyl)azetidin-3-yl)oxy)methyl)-N-((2^2S,6^3S,4S)-1^2-(2-((S)-1-methoxyethyl)pyridin-3-yl)-10,10-dimethyl-5,7-dioxo-1^1-(2,2,2-trifluoroethyl)-6^1,6^2,6^3,6^4,6^5,6^6-hexahydro-1^1H-8-oxa-2(4,2)-morpholina-1(5,3)-indola-6(1,3)-pyridazinacycloundecaphane-4-yl)-3-methylbutanamide] | < 5 | < 0.01 | 1 to 10 | < 0.01 | > 10 | 1 to 10
13 | C=CC(=O)N(C)[C@@H]1CCCN(C(=O)N(C)[C@H](C(=O)N[C@H]2Cc3nc(cs3)-c3ccc4c(c3)c(c(-c3cccnc3[C@H](C)OC)n4CC)CC(C)(C)COC(=O)[C@@H]3CCCN(N3)C2=O)C(C)C)C1 (atropisomer, axis not shown) [Example A382] | < 5 | 0.01 to 0.1 | 0.1 to 1 | 0.01 to 0.1 | 0.01 to 0.1 | 0.01 to 0.1
14 | C=CC(=O)N(C)C1CCN(C(=O)N(C)[C@H](C(=O)N[C@H]2Cc3nc(cs3)-c3ccc4c(c3)c(c(-c3cccnc3[C@H](C)OC)n4CC)CC(C)(C)COC(=O)[C@@H]3CCCN(N3)C2=O)C(C)C)CC1 (atropisomer, axis not shown) [Example A383] | < 5 | 0.01 to 0.1 | 0.01 to 0.1 | 0.01 to 0.1 | 0.01 to 0.1 | 0.01 to 0.1
15 | C=CC(=O)N1C[C@@H](C)N(C(=O)N(C)[C@H](C(=O)N[C@H]2Cc3nc(cs3)-c3ccc4c(c3)c(c(-c3cccnc3[C@H](C)OC)n4CC)CC(C)(C)COC(=O)[C@@H]3CCCN(N3)C2=O)C(C)C)[C@H](C)C1 (atropisomer, axis not shown) [Example A388] | < 5 | < 0.01 | 0.01 to 0.1 | < 0.01 | < 0.01 | < 0.01
16 | C=CC(=O)N1C[C@@H]2CN(C(=O)N(C)[C@H](C(=O)N[C@H]3Cc4nc(cs4)-c4ccc5c(c4)c(c(-c4cccnc4[C@H](C)OC)n5CC)CC(C)(C)COC(=O)[C@@H]4CCCN(N4)C3=O)C(C)C)C[C@@H]2C1 (atropisomer, axis not shown) [Example A389] | < 5 | 0.01 to 0.1 | 0.01 to 0.1 | 0.01 to 0.1 | 0.01 to 0.1 | 0.01 to 0.1
17 | C=CC(=O)N(C)[C@@H]1CCN(C(=O)N(C)[C@H](C(=O)N[C@H]2Cc3nc(cs3)-c3ccc4c(c3)c(c(-c3cccnc3[C@H](C)OC)n4CC)CC(C)(C)COC(=O)[C@@H]3CCCN(N3)C2=O)C(C)C)C1 (atropisomer, axis not shown) [Example A416] | < 5 | 0.01 to 0.1 | 0.1 to 1 | 0.1 to 1 | 0.1 to 1 | 0.1 to 1
18 | C=CC(=O)N1CC[C@H](C(=O)N(C)[C@H](C(=O)N[C@H]2Cc3coc(n3)-c3ccc4c(c3)c(c(-c3cccnc3[C@H](C)OC)n4CC)CC(C)(C)COC(=O)[C@@H]3CCCN(N3)C2=O)C(C)C)C1 (atropisomer, axis not shown) [Example A468] | < 5 | 0.1 to 1 | 1 to 10 | 0.1 to 1 | > 10 | 1 to 10
19 | C=CC(=O)N1CCN(C(=O)N(C)[C@H](C(=O)N[C@H]2Cc3nc(cs3)-c3ccc4c(c3)c(c(-c3cccnc3[C@H](C)OC)n4CC)CC(C)(C)COC(=O)[C@@H]3CCCN(N3)C2=O)C(C)C)CC1 (atropisomer, axis not shown) [Example A491] | < 5 | 0.01 to 0.1 | 0.01 to 0.1 | 0.01 to 0.1 | 0.01 to 0.1 | 0.01 to 0.1
